Results: patent US20230133910A1, “NEW METHOD FOR DETECTING AND QUANTIFYING RNA” (EAST CHINA UNIVERSITY OF SCIENCE AND TECHNOLOGY, priority 2020, published 2023)

Experiments:
Carrot-1 RNA aptamer = experiment: Properties of Carrot-1 RNA aptamer with different fluorophores (spectra, extinction coefficient, quantum yield, activation fold); type: biochemical; conditions: for Emmax / Exmax / Extinction coefficient / Quantum yield: fluorophore bound to Carrot-1 RNA aptamer; for Activation fold: fluorophore with Carrot-1 RNA aptamer versus fluorophore alone
Experimental: (§1) (5) Function detection of nucleic acid aptamers Carrot or Carrot mutant nucleic acid aptamer molecules were prepared according to common experimental method (I), 5 μM of nucleic acid aptamer molecules and 1 μM of fluorophore molecules were incubated in detection buffer (40 mM HEPES, pH 7.4, 125 mM KCl, 5 mM MgCl2, 5% DMSO), and Synergy Neo2 multifunctional microplate reader was used for detecting and obtaining the maximum excitation peak and the maximum emission peak of the fluorescence of the nucleic acid aptamer-fluorophore molecule complex. The Synergy Neo2 multifunctional microplate reader was used again for detecting the fluorescence intensity of the aptamer-fluorophore molecule complex under its maximum excitation and emission conditions. Control sample (1 μM of fluorophore molecules without nucleic acid aptamer) was measured under the same condition, and the ratio of fluorescence intensity was calculated. […] By using Synergy Neo2 multifunctional microplate reader, it was detected that the fluorescence intensity of the complex was 5720 when it was excited at 524±10 nm and emitted under the emission condition of 580 nm±10 nm, while fluorescence intensity of the control sample (1 μM of IV-39 fluorophore molecules) under the same detection condition was 20, so the activation multiple of Carrot-1 nuclear acid aptamer to IV-39 fluorophore molecule was 286.
In order to detect the spectral properties of the Carrot-IV-39 complex, Carrot-1 (SEQ ID NO: 2) RNA was prepared according to the commonly used experimental method (1). 1 μM IV-39 with 5 μM Carrot-1 was incubated.
Carrot-1 RNA aptamer was prepared according to the commonly used experimental methods (1), and was used to detect the properties of IV-39 analogues upon Carrot binding, including the fluorescence spectrum, extinction coefficient, quantum yield and fluorescence activation fold. From the data shown in the table, Carrot-1 still could activate the fluorescence of IV-39 analogues.

[1] = Fluorescence activation of IV-39 by base-modified Carrot; type: biochemical; conditions: control buffer
Experimental: as §1, with “286. […]” for “286.”

Row | Compound | Emmax (Carrot-1 RNA aptamer) [nm] | Exmax (Carrot-1 RNA aptamer) [nm] | Extinction coefficient (Carrot-1 RNA aptamer) [M⁻¹ cm⁻¹] | Quantum yield (Carrot-1 RNA aptamer) | Activation fold (Carrot-1 RNA aptamer) [fold] | activation of the fluorescence of IV-39 fluorophore [1]
1 | O=C1/C(=C/c2ccc(O)c(Br)c2)N=C(/C=C/c2cccc(Cl)c2)N1CCO [Carrot-1-IV-15] | 578 | 480 | 21000 | 0.03 | 7 | 
2 | CN1C(=S)/C(=C/c2cc(F)c(O)c(F)c2)N=C1/C=C/c1ccc(C#N)cc1 [Carrot-1-IV-8] | 638 | 534 | 22500 | 0.21 | 68 | 
3 | CN1C(=O)/C(=C/c2cc(Br)c(O)c(Br)c2)N=C1/C=C/c1ccc(F)cc1 [Carrot-1-IV-16] | 587 | 485 | 22000 | 0.08 | 34 | 
4 | Carrot-3: base-modified Carrot, SEQ ID NO: 5, GGGAAGATTGTAAACACGCCGAAAGGCGGACACTTCCC containing deoxyribonucleotide bases (GGGAAGAUUGUAAACACGCCGAAAGGCGGACACUUCCC; some positions are deoxyribonucleotides, which ones are not given here in text) |  |  |  |  |  | significantly activate
5 | C#CCN1C(=O)/C(=C/c2ccc(O)c(Cl)c2)N=C1/C=C/c1ccc(I)cc1 [Carrot-1-IV-14] | 585 | 482 | 21000 | 0.02 | 6 | 
6 | CC(C)CN1C(=O)/C(=C/c2cc(F)c(O)c(Br)c2)N=C1/C=C/c1ncc(C#N)cn1 [Carrot-1-IV-11] | 614 | 507 | 21000 | 0.05 | 16 | 
7 | Carrot-4: base-modified Carrot, SEQ ID NO: 6, GGGAAGATTGTAAACACGCCGAAAGGCGGACACTTCCC containing 2′-F modification (GGGAAGAUUGUAAACACGCCGAAAGGCGGACACUUCCC; some positions carry 2'-F, which ones are not given here in text) |  |  |  |  |  | significantly activate
8 | CN1C(=O)/C(=C/c2ccc(N(C)CCO)cc2)N=C1/C=C/c1cccc(O)c1 [Carrot-1-IV-17] | 582 | 524 | 32000 | 0.47 | 282 | 
9 | CN1C(=O)/C(=C/c2cc(F)c(O)c(F)c2)N=C1/C=C/c1cccc(O)c1 [Carrot-1-IV-4] | 574 | 490 | 23000 | 0.37 | 191 | 
10 | C#CCOCCN(C)c1ccc(/C=C2N=C(/C=C/c3ccc(F)cc3)N(C)C\2=O)cc1 [Carrot-1-IV-36] | 578 | 511 | 22000 | 0.28 | 262 | 
11 | COCCOCCOCCOCCN1C(=O)/C(=C/c2cc(F)c(O)c(I)c2)N=C1/C=C/c1ccc(Cl)cc1 [Carrot-1-IV-12] | 577 | 482 | 19000 | 0.03 | 6 | 
12 | CN1C(=S)/C(=C/c2cc(F)c(O)c(F)c2)N=C1/C=C/c1ccc(F)cc1 [Carrot-1-IV-7] | 598 | 514 | 24000 | 0.27 | 201 | 
13 | CNC(=O)CN1C(=O)/C(=C/c2cc(Cl)c(O)c(Cl)c2)N=C1/C=C/c1ccc(Br)cc1 [Carrot-1-IV-13] | 579 | 478 | 20000 | 0.02 | 5 | 

More lines, main results first:

Row | Emmax (Carrot-1 RNA aptamer) [nm] | Exmax (Carrot-1 RNA aptamer) [nm] | Extinction coefficient (Carrot-1 RNA aptamer) [M⁻¹ cm⁻¹] | Quantum yield (Carrot-1 RNA aptamer) | Compound | Activation fold (Carrot-1 RNA aptamer) [fold] | activation of the fluorescence of IV-39 fluorophore [1]
14 | 580 | 522 | 32000 | 0.46 | CN1C(=O)/C(=C/c2ccc(N(C)CCO)cc2)N=C1/C=C/c1ccc(F)cc1 [Carrot-1-IV-22] | 301 | 
15 | 648 | 547 | 19000 | 0.12 | C=CCOCCN(C)c1ccc(/C=C2N=C(/C=C/c3ccccc3C#N)N(C)C\2=S)cc1 [Carrot-1-IV-23] | 57 | 
16 | 581 | 515 | 29000 | 0.38 | CN(C)CCN(C)c1ccc(/C=C2N=C(/C=C/c3cccc(F)c3)N(C)C\2=O)cc1 [Carrot-1-IV-34] | 287 | 
17 | 579 | 476 | 19000 | 0.04 | CN1CCc2cc(/C=C3N=C(/C=C/c4ccc(F)nc4)N(CCO)C\3=O)ccc21 [Carrot-1-IV-28] | 19 | 
18 | 619 | 531 | 27000 | 0.26 | CN1C(=O)/C(=C/c2ccc(N(C)CCS(=O)(=O)O)cc2)N=C1/C=C/c1ccc(C#N)cc1 [Carrot-1-IV-29] | 87 | 
19 | 576 | 472 | 19000 | 0.09 | CN1C(=O)/C(=C/c2cnc(N(C)CCC#N)nc2)N=C1/C=C/c1ccccc1I [Carrot-1-IV-27] | 57 | 
20 | 588 | 485 | 19000 | 0.05 | CN1CCc2cc(/C=C3N=C(/C=C/c4ccc(Br)nc4)N(CC(F)(F)F)C\3=O)ccc21 [Carrot-1-IV-30] | 15 | 
21 | 590 | 522 | 30000 | 0.43 | CN1C(=O)/C(=C/c2ccc(N(C)CCO)cc2)N=C1/C=C/c1cccc(F)c1 [Carrot-1-IV-19] | 331 | 
22 | 621 | 508 | 24000 | 0.15 | COCCOCCOCCOCC(=O)OCCN(C)c1ccc(/C=C2N=C(/C=C/c3ccc(C#N)cc3)N(C)C\2=O)cc1 [Carrot-1-IV-31] | 75 | 
23 | 574 | 475 | 18000 | 0.02 | CCN(CC)c1ccc(/C=C2N=C(/C=C/c3ccc(Cl)cc3)N(CC(=O)OC)C\2=O)nc1 [Carrot-1-IV-25] | 4 | 
24 | 592 | 519 | 28000 | 0.38 | CN1C(=O)/C(=C/c2ccc(N(C)CCN)cc2)N=C1/C=C/c1cccc(F)c1 [Carrot-1-IV-33] | 287 | 
25 | 615 | 498 | 21000 | 0.09 | CCCN1C(=S)/C(=C/c2ccc(N(C)C)nc2)N=C1/C=C/c1ccccc1F [Carrot-1-IV-24] | 45 | 
26 | 581 | 519 | 26000 | 0.31 | CN1C(=O)/C(=C/c2cc(F)c(O)c(F)c2)N=C1/C=C/c1ccccn1 [Carrot-1-IV-38] | 257 | 
27 | 619 | 527 | 21000 | 0.14 | CN1C(=O)/C(=C/c2ccc(N)cc2)N=C1/C=C/c1ccc(C#N)cc1 [Carrot-1-IV-35] | 97 | 
28 | 591 | 489 | 22000 | 0.11 | COC(=O)CNCCN(C)c1ccc(/C=C2N=C(/C=C/c3ccc(Br)cc3)N(C)C\2=O)cc1 [Carrot-1-IV-32] | 64 | 
